Measured values: ChEMBL document CHEMBL3352244, “Synthesis and biological activity of 5-(4-methoxyphenyl)-oxazole derivatives” (Bioorg Med Chem Lett, 2015)
≈ marks a conversion by molar mass, not a printed value.

Key:
Caenorhabditis elegans [1] = assay: Growth inhibition of adult Caenorhabditis elegans measured on day 3 by microscopy; assay type: functional; settings: 72 h
Caenorhabditis elegans [2] = assay: Inhibition of hatch of eggs newly spawned by adult Caenorhabditis elegans measured on day 3; assay type: functional; settings: 72 h
Staphylococcus aureus = assay: Antimicrobial activity against Staphylococcus aureus incubated at 37 degC for 24 hrs; assay type: functional, organism-based
HeLa = assay: Cytotoxic activity against human HeLa cells after 48 hrs by WST8 assay; assay type: functional, cell-based
D-aspartate oxidase 3 = target: T1, D-aspartate oxidase 3 (Caenorhabditis elegans, UniProt O01739); assay: Inhibition of Caenorhabditis elegans DDO3 incubated for 10 mins
T1 sequence (O01739 whole entry): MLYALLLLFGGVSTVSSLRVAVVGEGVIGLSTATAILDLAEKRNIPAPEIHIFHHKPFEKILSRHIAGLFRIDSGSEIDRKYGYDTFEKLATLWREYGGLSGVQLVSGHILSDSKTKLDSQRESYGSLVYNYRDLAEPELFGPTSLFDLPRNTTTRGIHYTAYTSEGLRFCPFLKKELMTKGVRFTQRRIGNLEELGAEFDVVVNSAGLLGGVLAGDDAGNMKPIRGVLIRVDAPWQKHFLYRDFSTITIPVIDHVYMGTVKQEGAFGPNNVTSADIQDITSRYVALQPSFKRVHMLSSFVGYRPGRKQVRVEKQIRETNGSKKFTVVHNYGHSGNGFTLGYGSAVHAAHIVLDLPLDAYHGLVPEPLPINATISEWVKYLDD

Aspergillus fumigatus = assay: Antimicrobial activity against Aspergillus fumigatus incubated at 28 degC for 24 hrs; assay type: functional, organism-based
Escherichia coli = assay: Antimicrobial activity against Escherichia coli incubated at 37 degC for 24 hrs; assay type: functional, organism-based
Pyricularia oryzae = assay: Antimicrobial activity against Magnaporthe oryzae incubated at 28 degC for 48 hrs; assay type: functional, organism-based
[3] = Cytotoxic activity against human HL60 cells after 48 hrs by WST8 assay; assay type: functional, cell-based; settings: HL-60, 48 h
D-amino-acid oxidase = target: T2, D-amino-acid oxidase (Caenorhabditis elegans, UniProt Q95XG9); assay: Inhibition of Caenorhabditis elegans DAO incubated for 10 mins
T2 sequence (Q95XG9 whole entry): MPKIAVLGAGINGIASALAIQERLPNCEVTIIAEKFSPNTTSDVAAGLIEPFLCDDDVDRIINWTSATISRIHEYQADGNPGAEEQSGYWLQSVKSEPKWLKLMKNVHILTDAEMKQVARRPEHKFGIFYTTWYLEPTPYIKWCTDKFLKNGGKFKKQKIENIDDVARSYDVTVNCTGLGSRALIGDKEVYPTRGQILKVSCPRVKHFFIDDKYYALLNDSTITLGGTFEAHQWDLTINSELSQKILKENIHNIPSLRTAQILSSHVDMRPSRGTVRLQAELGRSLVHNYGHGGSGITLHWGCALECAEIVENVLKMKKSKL

Candida albicans = assay: Antimicrobial activity against Candida albicans incubated at 28 degC for 24 hrs; assay type: functional, organism-based
Plasmodium falciparum = assay: Antimalarial activity against Plasmodium falciparum K1 after 72 hrs by parasite LDH assay; assay type: functional, organism-based; settings: K1, 72 h
Caenorhabditis elegans [4] = assay: Inhibition of hatch of eggs newly spawned by adult Caenorhabditis elegans at 17 uM measured on day 3; assay type: functional; settings: 72 h

Cc1ccc(-c2cnco2)cc1
MIC (Caenorhabditis elegans [1]): > 100 µM
MIC (Caenorhabditis elegans [2]): > 100 µM

COc1ccc(-c2c[nH]cn2)cc1
MIC (Caenorhabditis elegans [1]): > 100 µM
MIC (Caenorhabditis elegans [2]): > 100 µM

COc1ccc(-c2cnco2)cc1
EC50 (Staphylococcus aureus): > 100 µM
EC50 (HeLa): 30 µM
EC50 (D-aspartate oxidase 3): > 100 µM
EC50 (Aspergillus fumigatus): > 100 µM
EC50 (Escherichia coli): > 100 µM
EC50 (Pyricularia oryzae): 4 µM
EC50 [3]: > 100 µM
EC50 (D-amino-acid oxidase): > 100 µM
EC50 (Candida albicans): > 100 µM
MIC (Caenorhabditis elegans [1]): 34 µM (≈ 5.96 µg/mL)
MIC (Caenorhabditis elegans [2]): 17 µM (≈ 2.98 µg/mL)
EC50 (Plasmodium falciparum): > 100 µM
inhibition at 17 µM (Caenorhabditis elegans [4]): 100%

COc1cccc(-c2cnco2)c1
MIC (Caenorhabditis elegans [1]): > 100 µM
MIC (Caenorhabditis elegans [2]): > 100 µM

COc1ccccc1-c1cnco1
MIC (Caenorhabditis elegans [1]): > 100 µM
MIC (Caenorhabditis elegans [2]): > 100 µM

COc1ccc(-c2cocn2)cc1
MIC (Caenorhabditis elegans [1]): > 100 µM
MIC (Caenorhabditis elegans [2]): > 100 µM

c1ccc(-c2cnco2)cc1
MIC (Caenorhabditis elegans [1]): > 100 µM
MIC (Caenorhabditis elegans [2]): > 100 µM

Oc1ccc(-c2cnco2)cc1
EC50 (Staphylococcus aureus): > 100 µM
EC50 (HeLa): 51 µM
EC50 (D-aspartate oxidase 3): > 100 µM
EC50 (Aspergillus fumigatus): > 100 µM
EC50 (Escherichia coli): > 100 µM
EC50 (Pyricularia oryzae): 15 µM
EC50 [3]: > 100 µM
EC50 (D-amino-acid oxidase): > 100 µM
EC50 (Candida albicans): > 100 µM
MIC (Caenorhabditis elegans [1]): > 100 µM
MIC (Caenorhabditis elegans [2]): > 100 µM
EC50 (Plasmodium falciparum): > 100 µM

CC(=O)Oc1ccc(-c2cnco2)cc1
MIC (Caenorhabditis elegans [1]): > 100 µM
MIC (Caenorhabditis elegans [2]): > 100 µM

CCc1ccc(-c2cnco2)cc1
MIC (Caenorhabditis elegans [1]): > 100 µM
MIC (Caenorhabditis elegans [2]): > 100 µM

COC(=O)c1ccc(-c2cnco2)cc1
MIC (Caenorhabditis elegans [1]): > 100 µM
MIC (Caenorhabditis elegans [2]): > 100 µM

O=C(O)c1ccc(-c2cnco2)cc1
MIC (Caenorhabditis elegans [1]): > 100 µM
MIC (Caenorhabditis elegans [2]): > 100 µM

N#Cc1ccc(-c2cnco2)cc1
MIC (Caenorhabditis elegans [1]): > 100 µM
MIC (Caenorhabditis elegans [2]): 100 µM (≈ 17 µg/mL)

CN(C)c1ccc(-c2cnco2)cc1
MIC (Caenorhabditis elegans [1]): 50 µM (≈ 9.41 µg/mL)
MIC (Caenorhabditis elegans [2]): > 100 µM

COC(=O)c1cc(-c2cnco2)ccc1OC
MIC (Caenorhabditis elegans [1]): > 100 µM
MIC (Caenorhabditis elegans [2]): > 100 µM

COc1ccc(-c2cnco2)cc1C(=O)O
MIC (Caenorhabditis elegans [1]): > 100 µM
MIC (Caenorhabditis elegans [2]): > 100 µM

COc1ccc(-c2ncco2)cc1
MIC (Caenorhabditis elegans [1]): 100 µM (≈ 17.5 µg/mL)
MIC (Caenorhabditis elegans [2]): > 100 µM

CCOC(=O)c1ccc(-c2ncc(-c3ccc(OC)cc3)o2)cc1
MIC (Caenorhabditis elegans [1]): > 100 µM
MIC (Caenorhabditis elegans [2]): > 100 µM

COc1ccc(-c2cnc(-c3ccc(C(=O)O)cc3)o2)cc1
MIC (Caenorhabditis elegans [1]): > 100 µM
MIC (Caenorhabditis elegans [2]): > 100 µM

COc1ccc(-c2cncs2)cc1
MIC (Caenorhabditis elegans [1]): 50 µM (≈ 9.56 µg/mL)
MIC (Caenorhabditis elegans [2]): > 100 µM
